Our source for the inhibition and Activity values is ChEMBL document CHEMBL1142190, “Development of a new methodology for screening of human immunodeficiency virus type 1 microbicides based on real-time PCR quantification” (Antimicrob Agents Chemother, 2007).

For assay [1], the target named is Human immunodeficiency virus type 1 reverse transcriptase (Human immunodeficiency virus 1) (UniProt Q72547). To be noted: 10 uM.
Description: Inhibition of reverse transcriptase assessed as decrease in ssDNA level in cell free virion HIV1 by NERT-based real-time PCR at 10 uM
Assay [2] relates to Human immunodeficiency virus 1. Description: Inhibition of reverse transcriptase RTY18C mutant in HIV1 Z6gpt assessed as inhibition of ssDNA synthesis.

SMILES strings stand for the structures.

In general, inhibition refers to the drop in the measured response relative to a control, in per cent. Read a low inhibition as a response near the control. In turn, `Cc1ccnc2c1NC(=O)c1cccnc1N2C1CC1` displayed an inhibition in assay [1] of 75%. In addition, the Activity in assay [2] stood at 256 µM.
